Results from ChEMBL document CHEMBL2434901, “2-Phenylbenzofuran derivatives alleviate mitochondrial damage via the inhibition of β-amyloid aggregation” (Bioorg Med Chem Lett, 2013).
Activity calls are given as the source filed them. The rule behind the calls is not given here.

Legend:
[1] = target: Amyloid-beta precursor protein (Homo sapiens) (UniProt P05067); experiment: Inhibition of amyloid beta (unknown origin) fibril formation at 10 uM by thioflavin T fluorescent dye assay
HT-22 [2] = experiment: Neuroprotective activity in mouse HT22 cells assessed as reduction of amyloid beta (1 to 42)-induced cytotoxicity by measuring green to red fluorescence ratio using JC1 staining at 10 uM after 10 mins relative to amyloid beta (1 to 42) treated control; assay type: functional
[3] = Cytotoxicity against mouse HT22 cells assessed as cell viability at 10 uM by MTT assay relative to control; assay type: cell-based, HT-22; conditions: read-out: Activity
HT-22 [4] = experiment: Neuroprotective activity in mouse HT22 cells assessed as reduction of amyloid beta (1 to 42)-induced cytotoxicity by measuring green to red fluorescence ratio using JC1 staining at 10 uM after 10 mins relative to control; assay type: functional; conditions: HT-22, 10 min
[5] = target: Amyloid-beta precursor protein (Homo sapiens) (UniProt P05067); experiment: Inhibition of amyloid beta (1 to 42) (unknown origin) oligomerization at 10 uM after 2 hrs by SDS-PAGE analysis

Amyloid-beta precursor protein (Homo sapiens), sequence (P05067 whole entry): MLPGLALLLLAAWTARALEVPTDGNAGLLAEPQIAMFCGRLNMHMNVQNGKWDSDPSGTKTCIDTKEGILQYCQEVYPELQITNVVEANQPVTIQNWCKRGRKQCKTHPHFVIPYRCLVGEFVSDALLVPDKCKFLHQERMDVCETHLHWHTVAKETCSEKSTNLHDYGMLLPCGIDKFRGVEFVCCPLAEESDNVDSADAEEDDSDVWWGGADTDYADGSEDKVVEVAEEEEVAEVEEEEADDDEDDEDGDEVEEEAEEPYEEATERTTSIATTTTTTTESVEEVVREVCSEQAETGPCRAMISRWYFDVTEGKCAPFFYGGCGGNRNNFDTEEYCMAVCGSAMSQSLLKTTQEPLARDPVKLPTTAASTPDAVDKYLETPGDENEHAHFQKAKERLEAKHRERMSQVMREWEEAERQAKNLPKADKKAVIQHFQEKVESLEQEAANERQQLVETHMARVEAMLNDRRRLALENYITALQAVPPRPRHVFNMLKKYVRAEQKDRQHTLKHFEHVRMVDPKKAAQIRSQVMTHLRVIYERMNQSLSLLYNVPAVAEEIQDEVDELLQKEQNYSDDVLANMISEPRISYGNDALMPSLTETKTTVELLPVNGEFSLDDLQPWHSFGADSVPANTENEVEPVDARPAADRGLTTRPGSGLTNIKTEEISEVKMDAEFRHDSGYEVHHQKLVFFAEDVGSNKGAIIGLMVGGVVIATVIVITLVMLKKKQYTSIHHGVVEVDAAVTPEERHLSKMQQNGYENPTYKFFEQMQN

| inhibition [1] | SMILES | other results |
| --- | --- | --- |
| 0% | COc1cc(/C=C/C(=O)O)cc2cc(-c3cccc(O)c3)oc12 | – |
| 33.3% | CN(C)c1cccc(-c2cc3cc(/C=C/C(=O)O)cc(O)c3o2)c1 | – |
| 0% | COc1ccccc1-c1cc2cc(/C=C/C(=O)O)cc(O)c2o1 | – |
| 28.3% | O=C(O)/C=C/c1cc(O)c2oc(-c3ccccc3O)cc2c1 | – |
| 16.8% | O=C(O)/C=C/c1cc(O)c2oc(-c3ccccc3)cc2c1 | – |
| 16.8% | CN(C)c1cc(-c2cc3cc(/C=C/C(=O)O)cc(O)c3o2)ccc1F | – |
| 0% | COc1cccc(-c2cc3cc(/C=C/C(=O)O)cc(O)c3o2)c1 | – |
| 19.7% | O=C(O)/C=C/c1cc(O)c2oc(-c3ccccc3F)cc2c1 | – |
| 0% | O=C(O)/C=C/c1cc(O)c2oc(-c3cccc(O)c3)cc2c1 | – |
| 0.4% | COc1cc(/C=C/C(=O)O)cc2cc(-c3cccc(F)c3)oc12 | – |
| 49.8% | CN(C)c1ccc(-c2cc3cc(/C=C/C(=O)O)cc(O)c3o2)cc1F | Ratio (HT-22 [2]): 115.7; viability at 10 µM [3]: 111%; inhibition at 10 µM (HT-22 [4]): 22.3%; inhibition [5]: Active |
| 42.6% | COc1cc(-c2cc3cc(/C=C/C(=O)O)cc(O)c3o2)ccc1O | Ratio (HT-22 [2]): 115.9; viability at 10 µM [3]: 105% |
| 26.7% | O=C(O)/C=C/c1cc(O)c2oc(-c3ccc(F)cc3)cc2c1 | – |
| 34.2% | COc1ccc(-c2cc3cc(/C=C/C(=O)O)cc(O)c3o2)cc1 | – |
| 14.3% | O=C(O)/C=C/c1cc(O)c2oc(-c3cccc(F)c3)cc2c1 | – |
| 45.9% | COc1cc(-c2cc3cc(/C=C/C(=O)O)cc(O)c3o2)ccc1N(C)C | Ratio (HT-22 [2]): 113.4; viability at 10 µM [3]: 102%; inhibition at 10 µM (HT-22 [4]): 45%; inhibition [5]: Active |
| 70.6% | CN(C)c1ccc(-c2cc3cc(/C=C/C(=O)O)cc(O)c3o2)cc1 | Ratio (HT-22 [2]): 123.2; viability at 10 µM [3]: 100%; inhibition at 10 µM (HT-22 [4]): 73.1%; inhibition [5]: Active |
| 22.4% | O=C(O)/C=C/c1cc(O)c2oc(-c3ccc(O)cc3)cc2c1 | – |
| 43.3% | COc1ccc(-c2cc3cc(/C=C/C(=O)O)cc(O)c3o2)cc1O | Ratio (HT-22 [2]): 122.1; viability at 10 µM [3]: 104%; inhibition at 10 µM (HT-22 [4]): 14.5% |

Second part, the compound before the results:

| SMILES | inhibition [1] | other results |
| --- | --- | --- |
| COc1cc(/C=C/C(=O)O)cc2cc(-c3cccc(N(C)C)c3)oc12 | 34.8% | – |
| COc1cc(/C=C/C(=O)O)cc2cc(-c3ccc(F)c(N(C)C)c3)oc12 | 9.9% | – |
| COc1ccc(-c2cc3cc(/C=C/C(=O)O)cc(OC)c3o2)cc1 | 12.5% | – |
| COc1cc(/C=C/C(=O)O)cc2cc(-c3ccccc3F)oc12 | 7% | – |
| COc1ccc(-c2cc3cc(/C=C/C(=O)O)cc(OC)c3o2)cc1N(C)C | 11.7% | – |
| COc1cccc(-c2cc3cc(/C=C/C(=O)O)cc(OC)c3o2)c1 | 0% | – |
| COc1cc(/C=C/C(=O)O)cc2cc(-c3ccc(F)cc3)oc12 | 2.7% | – |
| COc1cc(/C=C/C(=O)O)cc2cc(-c3ccccc3O)oc12 | 18.1% | – |
| COc1cc(-c2cc3cc(/C=C/C(=O)O)cc(OC)c3o2)ccc1N(C)C | 50.2% | Ratio (HT-22 [2]): 104.2; viability at 10 µM [3]: 104%; inhibition [5]: Active |
| CN(C)c1ccc(-c2cc3cc(/C=C/C(=O)O)ccc3o2)cc1 | 57% | – |
| COc1ccc(-c2cc3cc(/C=C/C(=O)O)cc(O)c3o2)cc1N(C)C | 32.5% | – |
| COc1cc(/C=C/C(=O)O)cc2cc(-c3ccc(N(C)C)cc3)oc12 | 72.6% | Ratio (HT-22 [2]): 90.3; viability at 10 µM [3]: 93.3%; inhibition [5]: Active |
| COc1cc(/C=C/C(=O)O)cc2cc(-c3ccc(N(C)C)c(F)c3)oc12 | 57.5% | Ratio (HT-22 [2]): 103.1; viability at 10 µM [3]: 102%; inhibition [5]: Active |
| COc1cc(/C=C/C(=O)O)ccc1O | 42.8% | inhibition [5]: Active |
| COc1ccc(-c2cc3cc(/C=C/C(=O)O)cc(OC)c3o2)cc1O | 0% | – |
| CN(C)c1ccccc1-c1cc2cc(/C=C/C(=O)O)cc(O)c2o1 | 8.1% | – |
| COc1cc(/C=C/C(=O)O)cc2cc(-c3ccc(O)cc3)oc12 | 14.8% | – |
| COc1cc(-c2cc3cc(/C=C/C(=O)O)cc(OC)c3o2)ccc1O | 28.4% | – |
| COc1cc(/C=C/C(=O)O)cc2cc(-c3ccccc3)oc12 | 0% | – |
| COc1cc(/C=C/C(=O)O)cc2cc(-c3ccccc3N(C)C)oc12 | 3.7% | – |
| COc1ccccc1-c1cc2cc(/C=C/C(=O)O)cc(OC)c2o1 | 0% | – |
